These results are taken from publication PMC9595134, “Novel pituitary actions of GnRH in teleost: The link between reproduction and feeding regulation” (Frontiers in Endocrinology, 2022).

Experiment [1] concerns goldfish. Further details: method as in PMID 7507838, PMID 8045371. The following applies: ref [34], [35], cited from earlier work.
For another experiment, the system named is pituitary. Particulars: teleost; ref [5], [10]; cited from earlier work. The text has this:
Subsequently, GnRH2 had been firstly found in chicken so that this variant was also named as chicken GnRH (cGnRH) ([3]). In addition, the third GnRH variant (GnRH3) was an ubiquitous and unique subtype existing in fish ([3]), which was primitively discovered in salmon so that it was named as salmon GnRH (sGnRH) ([4]). Multiple GnRH variants (two or three forms) are present in all teleosts ([5]), but the receptor selectivity a ...

The test system of experiment [2] is grass carp pituitary cells. The experiment can be described thus: qRT-PCR of reproductive hormone genes in pituitary cells. The experiment is classed as cell-based, grass carp (Ctenopharyngodon idellus). The procedure: (§1) The preparation of grass carp pituitary cells was performed as mentioned above. After drug treatment, the total RNA of these cells was isolated by TRIzol reagent and reverse transcribed into cDNA with Hifair™ III 1st Strand cDNA Synthesis Kit. The transcript levels of several anorectic peptides (POMCb, CART2, UTS1, NMBa, NMBb, and Lepr) and reproductive genes (GtHα, LHβ, FSHβ, INHBa, SgII, DRD2) were detected by using an ABI 7500 quantitative real-time PCR (qRT-PCR) system (Biosystems, USA) (information of primers for target genes is listed in Supplementary Table S3 ). In this process, a serial gradient dilution of plasmid DNA of these genes was used as a standard for data calibration. The conditions of qRT-PCR were set to 10 min, 95°C, for pre-degeneration; 15 s, 95°C, for degeneration; 30 s, 55°C–60°C, for annealing; 30 s, 72°C, for extending; and 20 s, 82°C, for signal detection with 40 cycles. Finally, the melt curve obtained through each test was used to verify and check the reliability and specificity of the corresponding qRT-PCR.
(§2) The transcript level was detected using qRT-PCR by ABI 7500 software, while the data calibration of each reaction was performed through standard curves with the dynamic range of 10^5 and correlation coefficient >0.95. The transcript level of β-actin was used as an internal control, and target gene mRNA expression was normalized and calculated as a percentage of the mean value (as “% Ctrl”). Based on merging four to eight replicates (as mean ± SEM), the data were analyzed with a one-way ANOVA to differentiate the significant differences from other treatment experiments. The SPSS Statistics 26.0 software was used to do a Dunnett’s post-hoc test. […] The different letters represent a significant difference at p < 0.05 between groups.
To further verify the reproductive function of GnRHs, time- and dose-dependent tests were performed to detect GnRH2- or GnRH3-regulated GtHα, LHβ, FSHβ, INHBa, SgII, and DRD2 mRNA expression in grass carp pituitary cells. […] In the dose-dependent test, a continuous gradient dilution of GnRH2 (0.1–1,000 nM) or GnRH3 (0.1–1,000 nM) was incubated with grass carp pituitary cells for 24 h.
Figure 5 Regulation of reproductive hormone gene mRNA expression by GnRH2 and GnRH3 in grass carp pituitary cells. (A) Time-course experiment of grass carp GnRH2 (1 μM) and GnRH3 (1 μM) on GtHα, LHβ, FSHβ, INHBa, SgII, and DRD2 mRNA expression in grass carp pituitary cells. (B) Dose dependence of a 24-h treatment with increasing levels of GnRH2 and GnRH3 (0.1–1,000 nM) on GtHα, LHβ, FSHβ, INHBa, SgII, and DRD2 mRNA expression in grass carp pituitary cells. After drug treatment, the pituitary cells were extracted to total RNA, reversed transcribed, and used for RT-PCR to detect the target genes’ mRNA expression. […] The different letters represent a significant difference at p < 0.05 between groups (ANOVA followed by a Dunnett test).

The test system of experiment [3] is grass carp pituitary cells. The experiment can be described thus: qRT-PCR of anorectic genes in pituitary cells. Type of experiment: cell-based, grass carp (Ctenopharyngodon idellus). The procedure:
as §1, §2
To further verify the functional role of GnRH2 and GnRH3 on feeding regulation, time- and dose-dependent tests were performed to detect the effect of GnRH2 and GnRH3 on anorectic gene (POMCb, CART2, UTS1, NMBa, NMBb, and LEPR) mRNA expression. In the time-course test, the grass carp pituitary cells were incubated by GnRH2 or GnRH3 (1 μM) for 3, 6, 12, and 24 h, respectively. […] In the dose-dependent test, grass carp pituitary cells were incubated by the continuous gradient dilution of GnRH2 or GnRH3 (0.1–1,000 nM) for 24 h.
Figure 9 Regulation of feeding hormone gene mRNA expression by GnRH2 and GnRH3 in grass carp pituitary cells. (A) Time-course experiment of grass carp GnRH2 (1 μM) and GnRH3 (1 μM) on POMCb, CART2, UTS1, NMBa, NMBb, and LEPR mRNA expression in grass carp pituitary cells. (B) Dose dependence of a 24-h treatment with increasing levels of GnRH2 and GnRH3 (0.1–1,000 nM) on POMCb, CART2, UTS1, NMBa, NMBb, and LEPR mRNA expression in grass carp pituitary cells. […]

In experiment [4] the test system is goldfish. Particulars: intracerebroventricular (ICV) injection, ref [39]; cited from earlier work.
A further experiment deals with zebrafish. The following applies: intracerebroventricular (ICV) injection, ref [38]; cited from earlier work.
Setting [5] is: 1 μM, time-dependent, Figure 5A.

Where a SMILES comes first, the peptide text is derived from it. [ ]: non-standard residue; d: D form. pGlu = O=C1CC[C@@H](C(=O)O)N1

With `NC(=O)CNC(=O)[C@@H]1CCCN1C(=O)[C@H](Cc1ccc(O)cc1)NC(=O)[C@H](Cc1c[nH]c2ccccc12)NC(=O)CNC(=O)[C@H](Cc1c[nH]cn1)NC(=O)[C@H](CO)NC(=O)[C@H](Cc1c[nH]c2ccccc12)NC(=O)[C@H](Cc1c[nH]cn1)NC(=O)[C@@H]1CCC(=O)N1` [GnRH2] ([pGlu]HWSHGWYPG-NH2), the “LH secretion compared to GnRH3” value in the experiment with goldfish [1] (sexually mature, pre-spawning fish) is given as “more robust LH secretion”. In addition, in the experiment on goldfish [1] (sexually regressed animals), the LH-releasing activity result was “no effect”. For the same compound, the “effect on LH and FSH secretion in the pituitary” value in the experiment with pituitary was “could stimulate”. In addition, in experiment [2] (setting [5]), the “effect on DRD2 mRNA expression, time course” value is recorded as “inhibit”; the “effect on GtHα, LHβ, FSHβ, INHBa, and SgII mRNA expression, time course” value was “significantly induce”. Also, the “effect on DRD2 mRNA expression, dose test” value in experiment [2] (0.1–1,000 nM (all treated doses), 24 h, Figure 5B) was “significantly inhibit”. The “effect on GtHα, LHβ, FSHβ, INHBa, and SgII mRNA expression, dose dependence” value in experiment [2] (0.1–1,000 nM, 24 h, dose-dependent, Figure 5B) is listed as “significantly induce”. In addition, the “effect on POMCb, CART2, UTS1, NMBa, NMBb, and LEPR mRNA expression, time course” value in experiment [3] (1 μM, 3, 6, 12, and 24 h, time-dependent, Figure 9A) is “significantly induce”. Further, the “effect on POMCb, CART2, UTS1, NMBa, NMBb, and LEPR mRNA expression, dose dependence” value in experiment [3] (0.1–1,000 nM, 24 h, dose-dependent, Figure 9B) is “significantly induce”. For the same compound, the “effect on food intake, goldfish” value in the experiment with goldfish [4] is reported as “significantly decrease food intake”. Also, the “effect on food intake, zebrafish” value in the experiment with zebrafish was “significantly decrease food intake”.
